Experimental data: paper PMC3877894, “Cytotoxic, Cytostatic and HIV-1 PR Inhibitory Activities of the Soft Coral Litophyton arboreum” (Marine Drugs, 2013)
Where “and” joins values, the source holds several entries; their conditions need not be identical. Identical values can stand only once. Entries after “also recorded” stand apart in the source; their conditions may differ. Like-named read-outs stand apart in the source and are kept apart here. Starred links: 1 amine or outer side, 2 acyl side, 3 side chain; linkers in the order of their positions; H or OH if unused. Positions of bridges follow the written chain, without caps; N, C: chain ends. Non-standard residues stand in square brackets, D forms with d. Residues, ends and D or L forms follow the SMILES beside them. Chains are numbered I, II in the order given. Actinocin(9to1) = Cc1c2oc3c(C)ccc(C(=O)[*:1])c3nc-2c(C(=O)[*:2])c(N)c1=O; NMeV = CN[C@H](C(=O)O)C(C)C; Sar = CNCC(=O)O

Key:
[1] = XTT cytotoxicity assay in Vero cells; conditions: African green monkey
Experimental: (§1) HeLa, U937, and Vero cell lines were maintained in culture flasks containing Eagle’s Minimum Essential Medium supplemented with 10% heat-inactivated FBS and 1% antibiotics (100 U/mL penicillin, 100 μg/mL streptomycin, and 250 μg/mL fungizone). The cells were grown at 37 °C in a humidified incubator set at 5% CO2. Cells were subcultured after they formed a monolayer on the flask. The cells were detached by treating them with trypsin-EDTA (0.25% trypsin containing 0.01% EDTA) for 10 minutes and then by adding complete medium to inhibit the reaction. Cytotoxicity was measured by the XTT method using the Cell Proliferation Kit II. The method described by Zheng et al. was used to perform the assay. Cells were seeded (100 μL) in a 96-well microtiter plate (concentration 1 × 10^5 cells/mL). The plate was then incubated for 24 h at 37 °C and 5% CO2 to allow the cells to attach to the bottom of the wells. The compounds were each prepared to a stock solution of 20 mg/mL and added to the microtiter plate. Serial dilutions were made to range from a concentration of 100 μg/mL–0.7 μg/mL for each compound. The microtiter plate was incubated for a further 72 h. The control wells included vehicle-treated cells exposed to 2% DMSO and the positive control Actinomycin D, with concentrations ranging between 0.5 μg/mL and 0.002 μg/mL. After the 72 h incubation period, the XTT reagent (50 μL) was added to a final concentration of 0.3 mg/mL and the plate was then further incubated for another 2 h. After the incubation the absorbance of the color complex was read at 490 nm with a reference wavelength set at 690 nm. […] The IC50 values were reported at ±95% confidence intervals (±95% CI). The results were analyzed using the GraphPad Prism 4 program.

[2] = XTT cytotoxicity assay in HeLa cells; conditions: human
Experimental: as §1

[3] = XTT cytotoxicity assay in U937 cells; conditions: human
Experimental: as §1

HIV-1 PR = target: T1, HIV-1 PR (Human immunodeficiency virus type 1 group M subtype B, UniProt P04585); assay: HIV-1 protease direct enzyme assay (fluorogenic peptide substrate); format: biochemical; conditions: for inhibition at 100 µg/mL: screened at 100 µg/mL
T1 construct: HIV-1 protease enzyme was purchased from Bachem Bioscience Inc; purchased Bachem Bioscience Inc
Experimental: HIV-1 protease enzyme was purchased from Bachem Bioscience Inc. King of Prussia, PA, […] and the substrate (a synthetic peptide that contains a cleavage site Tyr-Pro for HIV protease as well as two covalently modiﬁed amino acids for the detection of cleavage). The assay was performed according to procedures by Lam et al., 2000 [39], in black 96 well assay plates obtained from Corning Incorporated, (Corning, New York, NY, USA). The fluorescence intensity was measured at an excitation wavelength of 355 nm and an emission wavelength of 460 nm using a synergy microplate spectrofluorometer (BioTek, Analytical & Diagnostic products, South Africa). […] DMSO was included in the enzyme control (1% DMSO). […] The percentage inhibition was calculated based on the formula: 100 − [(Test reagent RFU − background RFU)/(untreated control RFU − blank) × 100] where RFU = relative fluorescence units.
All the experiments were repeated three times in order to ensure the precision and accuracy of the data.

HeLa cells [4] = assay: Real-time cell electronic sensing (RT-CES, xCELLigence) in HeLa cells; format: cell-based; conditions: for inhibition of cell proliferation compared to untreated cells (RT-CES): HeLa, Figure 5
Experimental: The xCELLigence system was used according to the instructions of the supplier (Roche Diagnostics, Mannheim, Germany and ACEA Biosciences, San Diego, CA, USA). HeLa cell line, media, trypsin-EDTA, fetal bovine serum (FBS), phosphate buffer saline (PBS), and antibiotics were supplied by […] Biological (Pty) Ltd. (Modderfontein, Johannesburg, South Africa). The electronic impedance of sensor electrodes that connect the E plate to the instrument is measured to allow monitoring and detection of physiological changes of the cells on the electrodes. The impedance measured between electrodes in an individual well depends on electrode geometry, ion concentration in the well and whether or not cells are attached to the electrodes. In the absence of cells, electrode impedance is mainly determined by the ion environment, both at the electrode/solution interface, and in the bulk solution. In the presence of cells, cells attached to the electrode sensor surfaces will act as insulators and thereby alter the local ion environment at the electrode/solution interface, leading to an increase in impedance. Thus, the more cells that are growing on the electrodes, the larger the value of electrode impedance. This assay has been described for the measurement of cytotoxicity and can be used to determine other cellular parameters such as cell proliferation, cytotoxicity start time, cell recovery, and cell response patterns in real time. HeLa cells were grown and expanded in tissue-culture flasks. After reaching ~75% confluence, the HeLa were washed with PBS, and afterwards detached from the flasks by a brief treatment with trypsin. Subsequently, 50 μL of cell culture media at room temperature was added into each well of E-plate. After this the plate was connected to the system and checked in the cell culture incubator for proper electrical-contacts and the background impedance was measured over 24 h. […] One-hundred microliters of each cell suspension was added to the 50 μL medium containing wells on the E-plate, in order to determine the optimum cell concentration. After 30 min incubation at room temperature, E-plates were placed into the cell culture incubator. Finally, adhesion, growth, and proliferation of the cells was monitored every 30 min for a period of up to 18 h via the incorporated sensor electrode arrays of the E-Plate. The electrical impedance was measured by the RTCA-integrated software of the xCELLigence system as a dimensionless parameter termed Cell index (CI). […] All experiments were run for 72 h after adding the compounds. All calculations were obtained using the RTCA-integrated software of the xCELLigence system.

KB = system: KB; set-up: method as in PMID 9722490; conditions: cited from earlier work
Vero cell line = assay: XTT cytotoxicity assay in Vero cells; conditions: at 4.85 µM (HIV-1 PR IC50 concentration)
Experimental: as §1

HT-29 = conditions: cited from earlier work
[5] = system: human prostate cancer cell line LNCaP; conditions: cited from earlier work
HeLa cells [6] = assay: XTT cytotoxicity assay in HeLa cells; conditions: for IC50: read-out: Cytotoxicity IC50 HeLa, XTT, 72 h incubation
Experimental: as §1

U937 cells = assay: XTT cytotoxicity assay in U937 cells; conditions: at 4.85 µM (HIV-1 PR IC50 concentration)
Experimental: as §1

P-388 = conditions: cited from earlier work
A549 cancer cell lines = conditions: cited from earlier work
[7] = HeLa cells, Cytotoxicity IC50 HeLa, XTT
[8] = HeLa cells, Cytotoxicity IC50 HeLa, XTT, 72 h incubation

Cc1c2oc3c(C)ccc(C(=O)N[C@@H]4C(=O)N[C@H](C(C)C)C(=O)N5CCC[C@H]5C(=O)N(C)CC(=O)N(C)[C@@H](C(C)C)C(=O)O[C@@H]4C)c3nc-2c(C(=O)N[C@@H]2C(=O)N[C@H](C(C)C)C(=O)N3CCC[C@H]3C(=O)N(C)CC(=O)N(C)[C@@H](C(C)C)C(=O)O[C@@H]2C)c(N)c1=O [Actinomycin D, reference compound] (I: T[dV]P[Sar][NMeV] / II: T[dV]P[Sar][NMeV]; ester I:1-I:C, II:1-II:C; linker I:N-II:N via Actinocin(9to1))
IC50 at 72 h [1]: 8.8 ± 2.5 µM | IC50 at 72 h [2]: 5.1 ± 0.1 µM | IC50 at 72 h [3]: 1.9 ± 0.865 µM

CC1=CCCC(C)=CCC(O)(C(C)C)CCC(C)=CCC1 (centres unmarked) [Compound 1, sarcophytol M]
IC50 (HIV-1 PR; read-out: IC50 HIV-1 PR): 15.7 ± 0.1 µM | inhibition at 100 µg/mL (HIV-1 PR): 100% | IC50 at 72 h ([1]; Vero cells): 22 ± 0.2 µM | IC50 at 72 h [2, 7]: 8.1 µg/mL | IC50 at 72 h [2, 8]: 27.5 ± 0.2 µM | IC50 at 72 h ([3]; U937 cells): 31.7 ± 3.2 µM

C=C1CCC(C(C)C)=CC2C1CCC2(C)O (centres unmarked) [Compound 2, alismol]
IC50 (HIV-1 PR; read-out: IC50 HIV-1 PR): 7.2 ± 0.7 µM | inhibition at 100 µg/mL (HIV-1 PR): 96.2% | IC50 at 72 h ([1]; Vero cells): 49 µM | IC50 at 72 h [2, 8]: 30 ± 17.2 µM | RT-CES effect in HeLa (HeLa cells [4]; 16 μg/mL (Figure 5)): cytostatic behavior | RT-CES (xCELLigence) effect in HeLa (HeLa cells [4]; 30 µg/mL): cytostatic effect | inhibition of cell proliferation compared to untreated cells (RT-CES) (HeLa cells [4]): 50%

C=C(CC[C@@H](C)[C@H]1CCC2C3CC=C4C[C@@H](O)CC[C@]4(C)C3CC[C@@]21C)C(C)C (stereo partly drawn) [Compound 3, 24-methylcholesta-5,24(28)-diene-3β-ol]
IC50 at 72 h ([1]; Vero cells): 100 ± 1.2 µM | IC50 at 72 h [2, 8]: 48 ± 8.7 µM

CO[C@]1(C)CCC(C(C)C)=C[C@H]2[C@H]1CC[C@]2(C)O [Compound 4, 10-O-methyl alismoxide]
IC50 at 72 h ([1]; Vero cells): 49.8 ± 0.5 µM | IC50 at 72 h [2, 8]: 38 ± 0.7 µM | IC50 at 72 h ([3]; U937 cells): 50 ± 0.23 µM

CC(C)C1=C[C@H]2[C@@H](CC[C@]2(C)O)[C@](C)(O)CC1 [Compound 5, alismoxide]
IC50 at 72 h ([1]; Vero cells): > 100 µM | IC50 at 72 h [2, 8]: > 100 µM | RT-CES effect in HeLa (HeLa cells [4]; 60 μg/mL (Figure 5)): cytostatic behavior | RT-CES (xCELLigence) effect in HeLa (HeLa cells [4]; 100 µg/mL): cytostatic effect | inhibition of cell proliferation compared to untreated cells (RT-CES) (HeLa cells [4]): 50% | IC50 at 72 h ([3]; U937 cells): > 100 µM

CCCCCCCCCCCCCCCCOC[C@@H](O)CO [Compound 6, (S)-chimyl alcohol]
IC50 (HIV-1 PR; read-out: IC50 HIV-1 PR): 26.6 ± 2.6 µM | inhibition at 100 µg/mL (HIV-1 PR): 100% | IC50 at 72 h ([1]; Vero cells): 60 ± 1.14 µM | IC50 at 72 h [2, 8]: 23.4 ± 5.8 µM

C=C(CCC(C)C1CCC2C3C(OC(C)=O)C=C4CC(O)CCC4(CO)C3CCC12C)C(C)C (stereo not drawn) [Compound 7, 7β-acetoxy-24-methylcholesta-5-24(28)-diene-3,19-diol]
IC50 (HIV-1 PR): 4.85 ± 0.18 µM | inhibition at 100 µg/mL (HIV-1 PR): 71.5% | Cytotoxicity KB (KB): 0.38 µg/mL | effect in Vero (normal cells) (Vero cell line): no effect | IC50 at 72 h ([1]; Vero cells): 31.3 ± 14 µM | Cytotoxicity HT-29 (HT-29): 0.87 µg/mL | Cytotoxicity IC50 LNCaP [5]: 15.5 µg/mL | cell death in HeLa (HeLa cells [6]; at 4.85 µM (HIV-1 PR IC50 concentration)): 50% | IC50 (HeLa cells [6]): 5.3 ± 0.6 µM | CC50 at 72 h ([2]; HeLa cells): 4.3 ± 0.75 µM | IC50 at 72 h [2, 7]: 4.3 µg/mL | IC50 at 72 h [2, 8]: 4.3 µM | RT-CES response in HeLa (HeLa cells [4]; 2.5 µg/mL): dose dependent cytostatic response; also recorded: cytostatic effects | RT-CES response in HeLa (HeLa cells [4]; 10 and 5 µg/mL): dose dependent cytotoxic response; also recorded: dose dependent cytotoxic tendency | RT-CES cytotoxicity profile in HeLa (HeLa cells [4]; tested at IC50s obtained by XTT): confirmed their cytotoxic effects; also recorded: more toxic than the positive control | cell death in U937 (U937 cells): 20% | IC50 at 72 h [3]: 7.8 µg/mL and 10.6 µM | Cytotoxicity P-388 (P-388): 0.42 µg/mL | Cytotoxicity A549 (A549 cancer cell lines): 0.81 µg/mL

CCCCCCCCCCCCCC=CCCC=CC(O)C(CO)NC(=O)CCCCCCCCCCC (stereo not drawn) [Compound 8, erythro-N-dodecanoyl-docosasphinga-(4E,8E)-dienine]
IC50 (HIV-1 PR; read-out: IC50 HIV-1 PR): 4.8 ± 0.92 µM | inhibition at 100 µg/mL (HIV-1 PR): 100% | IC50 at 72 h ([1]; Vero cells): > 100 µM | IC50 (HeLa cells [6]): 38.2 ± 0.7 µM | IC50 at 72 h [2, 8]: 71 µM | RT-CES (xCELLigence) effect in HeLa (HeLa cells [4]; 100 µg/mL): only affected at long incubation times; also recorded: low level cytotoxicity | IC50 at 72 h ([3]; U937 cells): > 100 µM

C=C(CC[C@@H](C)[C@H]1CCC2C3C(CC[C@@]21C)[C@@]1(CO)CC[C@H](O)CC1=C[C@@H]3O)C(C)C (stereo partly drawn) [Compound 9, 24-methylcholesta-5,24(28)-diene-3β,7β,19-triol]
Cytotoxicity KB (KB): 0.58 µg/mL | IC50 at 72 h [1]: 11.4 ± 0.04 µM | Cytotoxicity HT-29 (HT-29): 0.72 µg/mL | Cytotoxicity IC50 LNCaP [5]: 4.9 µg/mL | IC50 at 72 h ([2]; Cytotoxicity IC50 HeLa): 3.4 µg/mL and 8 µM | IC50 at 72 h [3]: 16.4 ± 1.25 µM | Cytotoxicity P-388 (P-388): 0.24 µg/mL | Cytotoxicity A549 (A549 cancer cell lines): 0.69 µg/mL
